Data: the supplement of paper PMC10307832

Assays:
Experiment in all cases: relative viability (nuclei count vs DMSO), 5 days (fraction); higher = more cells survive
[1] = compound: COc1ncc(-c2ccc3nccc(-c4ccnnc4)c3c2)cc1NS(=O)(=O)c1ccc(F)cc1F [Omipalisib]
Outline: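 MetaXpress counted nuclei in 4× images of lung cancer cell lines that had been fixed, permeabilised and Hoechst-stained in one step. Before that, cells in 1536-well plates were kept overnight at 37 °C, pinned with five √10-spaced library-drug doses on vehicle-anchored plates, and cultured 5 days without medium change. Viability takes treated-well nuclei over vehicle-well nuclei and uses the median across plates. Plates were accepted only at control CV below 25% and at least one doubling.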

[2] = compound: COc1ncc(-c2ccc3nccc(-c4ccnnc4)c3c2)cc1NS(=O)(=O)c1ccc(F)cc1F [Omipalisib] + CCNC(=O)c1noc(-c2cc(C(C)C)c(O)cc2O)c1-c1ccc(CN2CCOCC2)cc1 [Luminespib] (partner 0.01 µM)
Outline: (§1)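 Each reported value is a median over duplicate plates. It expresses relative viability: treated-well nuclei count divided by vehicle-well nuclei count. Lung cancer cell lines in 1536-well plates were dosed by pin tool a day after seeding, alone with one drug or with a fixed anchor-drug dose plus five library-drug doses (not always all listed) in √10 steps, and nuclei were counted after 5 days.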

[3] = compound: COc1ncc(-c2ccc3nccc(-c4ccnnc4)c3c2)cc1NS(=O)(=O)c1ccc(F)cc1F [Omipalisib] + COc1cccc2cc(-c3nc([C@H]4CC[C@H](C(=O)O)CC4)n4ncnc(N)c34)[nH]c12 [OSI-027] (partner 0.5 µM)
Outline: as §1

[4] = compound: COc1ncc(-c2ccc3nccc(-c4ccnnc4)c3c2)cc1NS(=O)(=O)c1ccc(F)cc1F [Omipalisib] + C[C@@H](Oc1cc(-c2cnn(C3CCNCC3)c2)cnc1N)c1c(Cl)ccc(F)c1Cl [Crizotinib] (partner 1 µM)
Outline: as §1

[5] = compound: COc1ncc(-c2ccc3nccc(-c4ccnnc4)c3c2)cc1NS(=O)(=O)c1ccc(F)cc1F [Omipalisib] + NC(=O)Nc1cc(-c2cccc(F)c2)sc1C(=O)N[C@H]1CCCNC1 [AZD7762] (partner 0.2 µM)
Outline: as §1

[6] = compound: COc1ncc(-c2ccc3nccc(-c4ccnnc4)c3c2)cc1NS(=O)(=O)c1ccc(F)cc1F [Omipalisib] + O=C(c1cc(Cc2n[nH]c(=O)c3ccccc23)ccc1F)N1CCN(C(=O)C2CC2)CC1 [Olaparib] (partner 8 µM)
Outline: as §1

Cell Line | relative viability ([1]; 0.0003 µM) | relative viability ([1]; 0.003 µM) | relative viability ([1]; 0.03 µM) | relative viability ([2]; first compound 0.0003 µM) | relative viability ([2]; first compound 0.003 µM) | relative viability ([2]; first compound 0.03 µM) | relative viability ([3]; first compound 0.0003 µM) | relative viability ([3]; first compound 0.003 µM) | relative viability ([3]; first compound 0.03 µM) | relative viability ([4]; first compound 0.0003 µM) | relative viability ([4]; first compound 0.003 µM) | relative viability ([4]; first compound 0.03 µM) | relative viability ([5]; first compound 0.0003 µM) | relative viability ([5]; first compound 0.003 µM) | relative viability ([5]; first compound 0.03 µM) | relative viability ([6]; first compound 0.0003 µM) | relative viability ([6]; first compound 0.003 µM) | relative viability ([6]; first compound 0.03 µM)
ABC-1 | 1.02 | 0.705 | 0.538 | 0.688 | 0.362 | 0.484 | 0.518 | 0.382 | 0.283 | 0.811 | 0.899 | 0.49 | 0.888 | 0.929 | 0.674 | 0.911 | 0.764 | 0.619
PC-14 | 1.05 | 1.05 | 0.795 | 0.154 | 0.143 | 0.16 | 0.761 | 0.529 | 0.435 | 0.855 | 0.912 | 0.799 | 0.294 | 0.327 | 0.18 | 0.343 | 0.404 | 0.42
NCI-H358 | 0.893 | 0.561 | 0.388 | 0.325 | 0.221 | 0.0986 | 0.595 | 0.473 | 0.16 | 0.502 | 0.6 | 0.303 | 0.43 | 0.366 | 0.244 | 0.544 | 0.38 | 0.324
EPLC-272H | 0.958 | 0.661 | 0.387 | 0.191 | 0.176 | 0.156 | 0.286 | 0.29 | 0.217 | 1.08 | 0.794 | 0.325 | 0.149 | 0.213 | 0.167 | 0.712 | 0.36 | 0.131
HCC-15 | 0.973 | 0.691 | 0.7 | 0.331 | 0.383 | 0.206 | 0.628 | 0.357 | 0.413 | 0.793 | 0.734 | 0.655 | 1.23 | 0.916 | 0.91 | 0.681 | 0.643 | 0.542
NCI-H1993 | 0.806 | 0.632 | 0.623 | 0.806 | 0.465 | 0.485 | 0.48 | 0.597 | 0.621 | 0.83 | 0.618 | 0.63 | 0.45 | 0.403 | 0.382 | 1.05 | 0.624 | 0.398
NCI-H2170 | 0.813 | 0.608 | 0.587 | 0.543 | 0.178 | 0.189 | 0.656 | 0.475 | 0.485 | 1.04 | 0.786 | 0.418 | 0.684 | 0.376 | 0.375 | 0.534 | 0.456 | 0.226
NCI-H23 | 0.913 | 0.594 | 0.464 | 0.225 | 0.219 | 0.218 | 0.62 | 0.365 | 0.321 | 0.425 | 0.263 | 0.283 | 0.278 | 0.227 | 0.223 | 0.384 | 0.242 | 0.143
NCI-H1437 | 1 | 0.837 | 0.398 | 1.15 | 1.02 | 0.926 | 0.854 | 0.639 | 0.323 | 0.864 | 0.894 | 0.702 | 1.17 | 1 | 0.395 | 0.673 | 0.603 | 0.537
NCI-H3122 | 0.971 | 0.956 | 0.538 | 0.074 | 0.0541 | 0.089 | 0.863 | 0.376 | 0.216 | 0.258 | 0.231 | 0.159 | 1.01 | 0.613 | 0.432 | 0.696 | 0.585 | 0.356
NCI-H1734 | 0.918 | 0.648 | 0.397 | 0.208 | 0.203 | 0.171 | 0.561 | 0.275 | 0.239 | 0.574 | 0.38 | 0.213 | 0.495 | 0.321 | 0.201 | 0.56 | 0.364 | 0.226
NCI-H1975 | 0.911 | 0.672 | 0.374 | 0.142 | 0.194 | 0.2 | 0.772 | 0.415 | 0.159 | 0.925 | 0.736 | 0.307 | 0.711 | 0.446 | 0.305 | 0.882 | 0.521 | 0.239
LU99A | 0.936 | 0.847 | 0.395 | 0.201 | 0.206 | 0.24 | 0.315 | 0.213 | 0.239 | 0.55 | 0.449 | 0.225 | 0.291 | 0.265 | 0.165 | 0.271 | 0.27 | 0.214
NCI-H1355 | 0.945 | 0.664 | 0.578 | 0.637 | 0.579 | 0.273 | 0.377 | 0.238 | 0.237 | 0.999 | 0.653 | 0.327 | 0.699 | 0.571 | 0.358 | 0.731 | 0.52 | 0.278
NCI-H1792 | 0.91 | 0.495 | 0.213 | 0.328 | 0.41 | 0.184 | 0.653 | 0.404 | 0.224 | 0.971 | 0.848 | 0.269 | 0.467 | 0.347 | 0.165 | 0.382 | 0.0789 | 0.0824
LCLC-103H | 1.04 | 0.745 | 0.617 | 0.999 | 0.714 | 0.427 | 0.436 | 0.354 | 0.313 | 1.07 | 0.922 | 0.63 | 0.747 | 0.623 | 0.402 | 0.781 | 0.726 | 0.397
